{"source": "patent US10046038B2", "about": "“Leptospira with increased antigenic mass” (priority 2012, dated 2018)", "key": {"[1]": {"test_system": "Leptospira serogroup Icterohaemorrhagiae", "assay": "Antigenic mass of fermenter culture by antigen Elisa", "format": "cell-based, L. interrogans (sensu lato)", "conditions": "for Ag U/10^9 cells/ml, at 3 days: BSA ingredient in EMJH medium, not supplemented", "protocol": "A working seed of a strain of L. interrogans was inoculated into EMJH medium and incubated at 29° C. for 3 to 5 days. If needed up to 5 consecutive pre-culture passages could be made, whereby the pre-cultures were visually inspected for sufficient proliferation (turbidity) as criterion for transfer to the next passage.\n(§1) All experiments were performed in 0.5, 2 or 20 L working volume, computer-controlled fermenters (Sartorius), which were filled with 0.5, 1 or 10 L sterile-filtered EMJH medium, respectively. The standard EMJH medium contained 1% w/v BSA and 0.125% w/v polysorbate 80. The pH of the medium was 7.4 ±0.1 at start. The fermenter was inoculated with 5% v/v serogroup lcterohaemorrhagiae pre-culture (passage 5), giving an inoculation density of 2-4×10^7 cells/ml at day 0.\n(§2) During all fermentation experiments the temperature was controlled at about 29° C. The medium was aerated with headspace airflow, and the dissolved oxygen (pO2) concentration was controlled by automatic variation of the agitation-rate, to maintain a set pO2 concentration. Temperature, pH and pO2 concentration were monitored online, but pH and foam formation were not controlled.\nIn comparative experiments up to 4 fermenters were run in parallel, which started off simultaneously with the same medium and Leptospira inoculum. One fermenter then usually contained only standard EMJH medium and served as reference, while in the others different supplementations of polyunsaturated C18 fatty acid were made.\n(§3) Supplementation was done either with pure linoleic acid (Sigma Aldrich, >99% pure) as a 10% v/v stock in absolute ethanol (JT Baker). Alternatively, linoleic acid was supplemented by using a BSA that was created with a high level of linoleic acid (high LA BSA). This high LA BSA was used either to replace a standard BSA in EMJH medium, or was used in addition to BSA in the EMJH medium, in which case it was added as a 25% w/v stock solution in sterile water. The high LA BSA or the pure linoleic acid/ethanol supplements were fed to a fermenter over the course of 4 hours, at 0.1-0.2 ml/hour, until the fermenter culture had received a desired total amount of linoleic acid. Different total available levels of linoleic acid have been tested, of between about 5 and 425 μg/ml in the total volume. The fermenter cultures of Leptospira were supplemented at different cell-densities i.e. at early-, mid- or end phase culture.\n(§4) Daily 5 ml samples were taken aseptically, directly from the fermenter, for analyses of total cell count (by Petroff-Hausser counting chamber); antigenic mass (by antigen amount Elisa); inactivated cells; and for profiling of the fatty acid type and-relative amounts (by gas chromatography) in the culture medium.\n(§5) Samples were inactivated with 0.1 or 0.2% v/v BPL, at 29° C. for 16-24 hours. The inactivated Leptospira were tested in an antigen Elisa within 24 hours.\n(§6) For a reference see: R. A. Hartskeerl et al., (International course on laboratory methods for the diagnosis of Leptospirosis, 4th Edition, 1 Apr. 2004. Royal Tropical Institute, Amsterdam).\n(§7) The Elisa's were set up as capture assays, whereby the same moab was used for coating and for detection.\nA reference standard was prepared for each Leptospira strain that was tested by antigen Elisa. The standard is a batch of monovalent Leptospira antigen, from inactivated cells. This was prepared using common techniques, essentially by proliferating a specific strain of Leptospira in EMJH medium as described above, and was inactivated as described before."}, "[2]": {"test_system": "Leptospira serogroup Icterohaemorrhagiae", "assay": "Biomass (total cell count) and toxicity in fermenter culture", "format": "cell-based, L. interrogans (sensu lato)", "protocol": "as §2"}, "[3]": {"test_system": "Leptospira serogroup Grippotyphosa", "format": "cell-based, L. interrogans (sensu lato)"}, "[4]": {"test_system": "Leptospira serogroup Australis (serovar Bratislava)", "format": "cell-based, L. interrogans (sensu lato)"}, "[5]": {"test_system": "Leptospira serogroup Tarassovi", "format": "cell-based, L. interrogans (sensu lato)", "protocol": "as §1, §3, §4, §5, §6, §7\n(§8) A reference standard was prepared for each Leptospira strain that was tested by antigen Elisa. The standard is a batch of monovalent Leptospira antigen, from inactivated cells. This was prepared using common techniques, essentially by proliferating a specific strain of Leptospira in EMJH medium as described above, and was inactivated as described before. Next the standard was concentrated and/or diluted in phosphate buffered saline, to contain about 1×10^9 cells/ml. An arbitrary number of antigen units was affixed to the sample, for example: 1000 Units/ml. When the standard needed replenishing, a subsequent preparation of the same standard, was compared and titrated alongside the old standard several times, before replacing it.\n(§9) As before, the average antigenic mass score by Elisa was calculated per 1×10^9 cells (pre-inactivation). […] The average antigenic mass 1×10^9 cells of the reference culture was set at 0% increase.\nBoth alpha-and gamma C18:3 were purchased as pure chemicals (>98%)."}, "[6]": {"test_system": "Leptospira serogroup Canicola (strain WS 280503)", "protocol": "as §1, §4, §5, §6, §7, §8, §9\n(§10) Both alpha-and gamma C18:3 were purchased as pure chemicals (>98%). Shortly before use for supplementation, they were diluted in pure ethanol to 10% or 20% v/v, depending on the amount of C18:3 that was to be added to a culture. This dilution in ethanol was added to a Leptospira culture by addition in 5 doses, divided over a period of 4 hours."}, "[7]": {"test_system": "Leptospira serogroup Pomona", "protocol": "as §1, §4, §5, §6, §7, §8, §9, §10"}, "[8]": {"test_system": "Leptospira serogroup Sejroe (serovar Hardjo)", "assay": "Antigenic mass of fermenter culture by antigen Elisa", "format": "cell-based, L. interrogans (sensu lato)", "conditions": "high LA BSA in EMJH", "protocol": "as §3, with “culture. Typical mid-phase cell density was at about 5×10^8 cells/ml, which was reached during day 2 of the main incubation. Upon supplementation with linoleic acid from the pure linoleic acid in ethanol stock, sometimes a small decrease in pH was noted, which was corrected by applying some NaOH.” for “culture.”\nIn a next study it was confirmed that the increase in antigenic mass upon supplementation with linoleic acid (C18:2) is a general phenomenon in Leptospira. […]"}, "[9]": {"conditions": "BSA used in EMJH medium, compared with standard BSA"}, "[10]": {"conditions": "100 μg/ml, alpha vs gamma side by side, FIGS. 19 and 20"}, "[11]": {"conditions": "supplementation at 5×10^8 cells/ml, FIGS. 33-36"}, "[12]": {"conditions": "supplementation at 8×10^8 cells/ml, FIGS. 33-36"}}, "note": "Like-named read-outs stand apart in the source and are kept apart here.", "data": [{"compound": "BSA, BovoLep ®: standard BSA enriched with a number of vegetable fatty acids, recommended for promoting growth of Leptospira (Bovogen, Australia)", "values": [{"measurement": "Ag U/10^9 cells/ml, at 3 days", "setting": "[1]", "result": 498, "unit": "Ag U/10^9 cells/ml"}, {"measurement": "effect on antigenic mass", "setting": "[1]; [9]", "result": "no significant effect"}, {"measurement": "effect on biomass", "setting": "[2]; [9]", "result": "did increase the biomass"}]}, {"compound": "BSA, Millipore: standard commercial BSA (Millipore)", "values": [{"measurement": "Ag U/10^9 cells/ml, at 3 days", "setting": "[1]", "result": 525, "unit": "Ag U/10^9 cells/ml"}]}, {"compound": "BSA, BovoStar ®: a standard all-purpose BSA from the same manufacturer (Bovogen)", "values": [{"measurement": "Ag U/10^9 cells/ml, at 3 days", "setting": "[1]", "result": 533, "unit": "Ag U/10^9 cells/ml"}]}, {"compound": "CCCCCC=CCC=CCC=CCCCCC(=O)O", "note": "[gamma C18:3, 6,9, 12-octadecatrienoic acid]", "values": [{"measurement": "increase in relative antigenic mass", "setting": "[1]; [10]", "result": 170, "unit": "%"}, {"measurement": "increase in antigenic mass", "setting": "[1]; 200 μg/ml, FIGS. 17 and 18", "result": 114, "unit": "%"}, {"measurement": "increase in antigenic mass", "setting": "[1]; 300 μg/ml, FIGS. 17 and 18", "result": 153, "unit": "%"}, {"measurement": "Relative increase in antigenic mass", "setting": "[1]; supplementation at 2×10^8 cells/ml, FIGS. 35-36", "result": 71, "unit": "%"}, {"measurement": "Relative increase in antigenic mass", "setting": "[1]; [11]", "result": 81, "unit": "%"}, {"measurement": "Relative increase in antigenic mass", "setting": "[1]; [12]", "result": 162, "unit": "%"}, {"measurement": "Relative increase in antigenic mass (%)", "setting": "[3]; 100 μg/ml gamma C18:3", "result": 57, "unit": "%"}, {"measurement": "Relative increase in antigenic mass (%)", "setting": "[4]; 100 μg/ml gamma C18:3", "result": 15, "unit": "%"}, {"measurement": "Relative increase in antigenic mass (%)", "setting": "[5]; 100 μg/ml gamma C18:3", "result": 51, "unit": "%"}, {"measurement": "Relative increase in antigenic mass (%)", "setting": "[6]; 200 μg/ml", "result": 98, "unit": "%"}, {"measurement": "Relative increase in antigenic mass (%)", "setting": "[6]; 300 μg/ml", "result": 83, "unit": "%"}, {"measurement": "Relative increase in antigenic mass (%)", "setting": "[7]; 100 μg/ml gamma C18:3", "result": 73, "unit": "%"}, {"measurement": "toxicity on the culture", "setting": "[2]; 400 μg/ml, FIGS. 17 and 18", "result": "showed toxicity"}]}, {"compound": "high LA BSA: a BSA that was created with a high level of linoleic acid", "values": [{"measurement": "antigenic mass", "setting": "[1]; high LA BSA at 1% w/v in EMJH, 25 μg/ml linoleic acid available, average of days 3-5", "result": 1636, "unit": "Ag U/1×10^9 cells"}, {"measurement": "Ag. mass, Ag U/10^9 cells/ml", "setting": "[1]; supplem. high LA BSA giving 50 μg/ml C18:2, total 55 μg/ml, EMJH standard BSA, average of days 3-5", "result": 1612, "unit": "Ag U/10^9 cells/ml"}, {"measurement": "relative Ag. mass (%)", "setting": "[1]; supplem. high LA BSA giving 50 μg/ml C18:2, total 55 μg/ml, non-supplemented = 100, average of days 3-5", "result": 221, "unit": "%"}, {"measurement": "relative Ag. mass (%)", "setting": "[8]; C18:2 total 25 μg/ml (reference = 100), 2 day average", "result": 100, "unit": "%"}, {"measurement": "Antigenic mass, Ag U/10^9 cells/ml", "setting": "[8]; C18:2 total 25 μg/ml, 2 day average (days 5 and 6)", "result": 287, "unit": "Ag U/10^9 cells/ml"}, {"measurement": "relative Ag. mass (%)", "setting": "[3]; high LA BSA in EMJH, C18:2 total 25 μg/ml (reference = 100), 2 day average", "result": 100, "unit": "%"}, {"measurement": "Antigenic mass, Ag U/10^9 cells/ml", "setting": "[3]; high LA BSA in EMJH, C18:2 total 25 μg/ml, 2 day average (days 4 and 5)", "result": 5074, "unit": "Ag U/10^9 cells/ml"}]}, {"compound": "CCC=CCC=CCC=CCCCCCCCC(=O)O", "note": "[alpha C18:3, 9, 12, 15-octadecatrienoic acid]", "values": [{"measurement": "increase in relative antigenic mass", "setting": "[1]; 100 μg/ml single fatty acid, FIGS. 37 and 38", "result": 144, "unit": "%"}, {"measurement": "increase in relative antigenic mass", "setting": "[1]; [10]", "result": 122, "unit": "%"}, {"measurement": "increase in antigenic mass", "setting": "[1]; 100 μg/ml, FIGS. 15 and 16, vs unsupplemented reference", "result": 122, "unit": "%"}, {"measurement": "increase in antigenic mass", "setting": "[1]; 200 μg/ml, FIGS. 15 and 16, vs unsupplemented reference", "result": 81, "unit": "%"}, {"measurement": "Relative increase in antigenic mass", "setting": "[1]; supplementation at 1×10^8 cells/ml, FIGS. 33-34", "result": 163, "unit": "%"}, {"measurement": "Relative increase in antigenic mass", "setting": "[1]; [11]", "result": 164, "unit": "%"}, {"measurement": "Relative increase in antigenic mass", "setting": "[1]; [12]", "result": 140, "unit": "%"}, {"measurement": "Relative increase in antigenic mass (%)", "setting": "[3]; 100 μg/ml alpha C18:3", "result": 60, "unit": "%"}, {"measurement": "Relative increase in antigenic mass (%)", "setting": "[3]; 200 μg/ml alpha C18:3", "result": 63, "unit": "%"}, {"measurement": "Relative increase in antigenic mass (%)", "setting": "[4]; 100 μg/ml alpha C18:3", "result": 40, "unit": "%"}, {"measurement": "Relative increase in antigenic mass (%)", "setting": "[4]; 200 μg/ml alpha C18:3", "result": 62, "unit": "%"}, {"measurement": "Relative increase in antigenic mass (%)", "setting": "[5]; 100 μg/ml alpha C18:3", "result": 59, "unit": "%"}, {"measurement": "Relative increase in antigenic mass (%)", "setting": "[5]; 200 μg/ml alpha C18:3", "result": 141, "unit": "%"}, {"measurement": "Relative increase in antigenic mass (%)", "setting": "[6]; 200 μg/ml", "result": 107, "unit": "%"}, {"measurement": "Relative increase in antigenic mass (%)", "setting": "[6]; 300 μg/ml", "result": 112, "unit": "%"}, {"measurement": "Relative increase in antigenic mass (%)", "setting": "[6]; 400 μg/ml", "result": 118, "unit": "%"}, {"measurement": "Relative increase in antigenic mass (%)", "setting": "[7]; 100 μg/ml alpha C18:3", "result": 0, "unit": "%"}, {"measurement": "Relative increase in antigenic mass (%)", "setting": "[7]; 200 μg/ml alpha C18:3", "result": 0, "unit": "%"}, {"measurement": "toxicity on the culture", "setting": "[2]; 300 or 400 μg/ml, FIGS. 15 and 16", "result": "toxic effects"}]}]}
